From US12545668B2, “Cyclic amine derivative as agent for promoting advillin function, and novel cyclic amine derivative and pharmaceutical use thereof” (Toray Industries, Inc., priority 2018, dated 2026)

What was measured:
[1] = Specific binding of 3H-labeled compound to membrane fraction prepared from rat dorsal root ganglion; settings: 3H-labeled compound of Example 7, 37° C., 1 hour; unlabeled compound for non-specific binding; FIG. 2
Description: A binding property of a ^3H-labeled cyclic amine derivative (I) to each of membrane fractions prepared from various tissues of a rat was evaluated, and thus, a tissue containing a molecular target of the cyclic amine derivative (I) was clarified.
As the cyclic amine derivative (I), the compound of Example 7 was used.
Male SD rats (manufactured by Charles River Laboratories Japan, Inc.) of 7 weeks old were used. Rats were anesthetized with isoflurane, and euthanized by exsanguination from the abdominal aorta using a syringe having an inner wall treated with a heparin sodium injection (manufactured by AY Pharmaceuticals Co., Ltd.). […]
A homogenate sample of each tissue thus collected was prepared, using a homogenizer, by adding a homogenize buffer (sucrose (1 M), Tris-HCl (0.5 M), and 1× protease inhibitor cocktail (manufactured by Sigma Aldrich), pH 7.6) to the collected tissue. […] The resultant supernatant was ultracentrifuged at 100,000×g at 4° C. for 60 minutes, and the thus obtained precipitate was suspended in Krebs-Ringer bicarbonate buffer (manufactured by Sigma Aldrich) to quantitatively determine the amount of protein using a BCA protein assay kit (manufactured by Thermo Fisher Scientific K.K.). […]

[2] = tested on: F11 cells (rat dorsal root ganglion neuron cell line); assay: Effect of decreasing intracellular actin filaments in F11 cells with oxaliplatin-induced axonal injury (phalloidin staining); format: cell-based; settings: F-11 rat/mouse fusion cell line, F11, 120 h, compound 10 μM with oxaliplatin 15 μM, 5 days; compared to oxaliplatin alone treated group; average of five samples; read-out: Decreasing Rate of Intracellular Actin Filament (%)
From the text: The effect of the cyclic amine derivative (I) or a pharmacologically acceptable salt thereof on the amount of intracellular actin filaments in F11 cells (rat dorsal root ganglion neuron cell line) was examined.
As test compounds, the compounds of Examples 1, 2, 3, 4, 5, 6, 7, 8, and 9 were used.
As compounds of comparative examples, 1-(4-(dimethylamino)piperidin-1-yl)-3-(1-ethyl-1H-imidazol-2-yl)-3-hydroxypropan-1-one (hereinafter, the compound of Comparative Example 1), 1-(4-(dimethylamino)piperidin-1-yl)-3-hydroxy-3-(1-(2,2,2-trifluoroethyl)-1H-imidazol-2-yl)propan-1-one (hereinafter, the compound of Comparative Example 2), 1-((R)-3-(dimethylamino)pyrrolidin-1-yl)-3-hydroxy-3-(1-methyl-1H-imidazol-2-yl)propan-1-one (hereinafter, the compound of Comparative Example 3), and 1-((R)-[…]-3-hydroxy-3-(1-methyl-1H-imidazol-2-yl)propan-1-one (hereinafter, the compound of Comparative Example 4) shown in Table 4 were used. The compounds of Comparative Examples 1, 2, 3, and 4 were synthesized in accordance with methods described in International Publication No. WO2016/136944.
For peeling the F11 cells off from a culture flask, 0.25% Trypsin/EDTA (manufactured by Thermo Fisher Scientific K.K.) was added to the cells, followed by incubation at room temperature for several minutes. Thereafter, 10% fetal bovine serum-containing DMEM medium (manufactured by Thermo Fisher Scientific K.K.) was added thereto for suspension, and the resultant centrifuged at 1,500 rpm for 1 minute. After removing the resultant centrifugal supernatant, 0.5% fetal bovine serum-containing DMEM medium was added thereto for suspending cells therein, and the resultant seeded in a poly-D-lysine-coated 96 well plate (manufactured by BD Biosciences) coated with laminin (2 μg/cm^2, manufactured by Sigma Aldrich) to be cultured at 37° C. under an environment of 5% CO2. Two hours after seeding the cells, N,N-dibutyladenosine 3′,5′-phosphate (final concentration 1 mM, manufactured by Sigma Aldrich) and recombinant rat GDNF (final concentration 50 ng/mL, manufactured by PeproTech) were added thereto to culture the cells at 37° C. under an environment of 5% CO2 for 7 days for differentiation.
Seven days after starting the culture, the medium was exchanged with 0.5% fetal bovine serum-containing DMEM medium containing oxaliplatin (final concentration 15 μM), and the resultant cultured for 5 days to induce axonal injury. Each of the compounds of Examples and Comparative Examples was caused to be contained in the medium (final concentration 10 μM) for treatment in the same manner as oxaliplatin.
Five days after treatment with oxaliplatin and each of the compounds, the resultant cells were washed with PBS(−) three times, a 4% paraformaldehyde-phosphate buffer (manufactured by Wako Pure Chemical Industries Ltd.) was added thereto, and the resultant allowed to stand still at room temperature for 10 minutes to fix the cells. Acti-stain 670 phalloidin (manufactured by Cytoskeleton Inc.) was added thereto, and the resultant incubated at room temperature for 30 minutes to stain actin filaments. An image of the cells was acquired using IN Cell Analyzer 2200 (manufactured by GE Healthcare), and the image analyzed using IN Cell Investigator Developer Toolbox. The amount of intracellular actin filaments was indicated by the amount of fluorescence (density) of fluorescent-labeled phalloidin binding to the actin filaments.
In a group treated with oxaliplatin alone (hereinafter, the oxaliplatin alone treated group), the amount of intracellular actin filaments increased by 5% compared to that in a group not treated with oxaliplatin. […] A decreasing rate of intracellular actin filaments, caused by each compound compared to the amount of intracellular actin filaments of the oxaliplatin alone treated group was calculated. […]

CN(C)C1CCN(C(=O)C[C@H](O)c2nccn2C)CC1 [Example 7, (S)-1-(4-(dimethylamino)piperidin-1-yl)-3-hydroxy-3-(1-methyl-1H-imidazol-2-yl)propan-1-one]
specific binding to the membrane fraction prepared from the dorsal root ganglion [1]: significant
inhibition at 10 µM [2]: ≥ 5%
